Test results published in ChEMBL document CHEMBL1201862, “PubChem BioAssay data set” (2004).
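How tested: cells in 96-well plates exposed to compound for 48 hours at five concentrations. At the GI50, growth is halved.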 The source made the active and inactive calls. Cut-off read from the data, not from the text of the source: active = GI50 up to about 1.1 µM and inactive = higher.

Columns and labels:
Experiment in all cases: NCI-60 cell line screen, 48 h
[1] = tested on: DMS-114
[2] = tested on: KM-20L2
[3] = tested on: LXFL 529
[4] = tested on: M19-MEL
[5] = tested on: RXF 631
[6] = tested on: SNB-78
[7] = tested on: XF498
[8] = tested on: HOP-18
[9] = tested on: DMS-273

Row | SMILES | GI50 [1] | GI50 [2] | GI50 [3] | GI50 [4] | GI50 [5] | GI50 [6] | GI50 [7] | GI50 [8] | GI50 [9]
1 | C=CCc1cc(-c2cc(CC=C)c(O)c(CNC)c2)cc(CNC)c1O | 16.1 µM (inactive) | 16.6 µM (inactive) | 15.2 µM (inactive) | 14.2 µM (inactive) | 15.3 µM (inactive) | 19.5 µM (inactive) | 16.3 µM (inactive) | – | –
2 | COc1ccc(/C=N/N=C(\N)NO)cc1O | 30.2 µM (inactive) | – | > 100 µM (inactive) | – | – | > 100 µM (inactive) | – | > 100 µM (inactive) | –
3 | N#CC1CC2(C(=O)C1=O)c1ccccc1-c1ccccc12 (stereo not drawn) | > 100 µM (inactive) | > 100 µM (inactive) | > 100 µM (inactive) | > 100 µM (inactive) | – | – | – | 82 µM (inactive) | > 100 µM (inactive)
4 | N#CC(C#N)=C1SCC(=O)CS1 | > 100 µM (inactive) | > 100 µM (inactive) | > 100 µM (inactive) | > 100 µM (inactive) | > 100 µM (inactive) | > 100 µM (inactive) | > 100 µM (inactive) | – | > 100 µM (inactive)
5 | Cc1ccc(N2Cc3c(ccc4ccccc34)OP2(=S)N2CCCC2)cc1 (stereo not drawn) | – | > 100 µM (inactive) | – | > 100 µM (inactive) | – | > 100 µM (inactive) | > 100 µM (inactive) | > 100 µM (inactive) | > 100 µM (inactive)
6 | C=Cc1c(-c2ccccc2)cnc2[nH]c3ccccc3c12 | > 50 µM (inactive) | – | > 50 µM (inactive) | > 50 µM (inactive) | – | – | > 50 µM (inactive) | – | > 50 µM (inactive)
7 | Cc1cccc2c1CCC21OC(=O)c2c1ccc1ccccc21 (stereo not drawn) | 24.8 µM (inactive) | 53.8 µM (inactive) | 47.6 µM (inactive) | 49 µM (inactive) | 24.4 µM (inactive) | – | – | 42 µM (inactive) | 32.7 µM (inactive)
8 | c1ccc2c(NCCCCCCCCNc3cccc4ccccc34)cccc2c1 | 25.6 µM (inactive) | 25.2 µM (inactive) | 18.6 µM (inactive) | > 10 µM (inactive) | 18.9 µM (inactive) | 46.8 µM (inactive) | 78.9 µM (inactive) | 20.1 µM (inactive) | 29.6 µM (inactive)
9 | CC(=O)Oc1ccccc1C(=O)C1c2cccc(O)c2C(=O)c2c(O)cccc21 | 0.366 µM (active) | 2.4 µM (inactive) | 1.29 µM (inactive) | 1.01 µM (active) | 3.01 µM (inactive) | 1.27 µM (inactive) | 0.561 µM (active) | 2.16 µM (inactive) | 1.24 µM (inactive)
10 | CCCC(O)c1cn(-c2cccc(S(=O)(=O)O)c2)nn1 (stereo not drawn) | > 100 µM (inactive) | > 100 µM (inactive) | > 100 µM (inactive) | > 100 µM (inactive) | > 100 µM (inactive) | > 100 µM (inactive) | > 100 µM (inactive) | > 100 µM (inactive) | > 100 µM (inactive)
11 | NC(=O)C(=O)n1ncc(Cl)c(Cl)c1=O | 16.9 µM (inactive) | 28.7 µM (inactive) | 15.1 µM (inactive) | 24.7 µM (inactive) | – | 20.3 µM (inactive) | 17 µM (inactive) | 20 µM (inactive) | 25 µM (inactive)
12 | CCc1cccc(CC)c1NC(=O)C1=C(C)NC(C)=C(C(=O)Nc2c(CC)cccc2CC)C1c1ccc2c(c1)OCO2 | – | 16.9 µM (inactive) | 15.9 µM (inactive) | 16.7 µM (inactive) | – | 22.6 µM (inactive) | – | 20.6 µM (inactive) | 13.3 µM (inactive)
13 | C=C1C2=C(CCCC2)C(=O)OC12CCCCC2 | 29.5 µM (inactive) | > 100 µM (inactive) | 40.7 µM (inactive) | 46.5 µM (inactive) | 72.1 µM (inactive) | – | 97.5 µM (inactive) | > 100 µM (inactive) | 51.4 µM (inactive)
14 | CC(C)(C)NNC(=O)/C(=C/c1ccc([N+](=O)[O-])cc1)NC(=O)c1ccccc1 | 18.6 µM (inactive) | > 100 µM (inactive) | > 100 µM (inactive) | > 100 µM (inactive) | – | > 100 µM (inactive) | > 100 µM (inactive) | > 100 µM (inactive) | 33.7 µM (inactive)
15 | O=C(OCCO)C1CC2CC1C1(C2)OCCO1 (stereo not drawn) | > 100 µM (inactive) | > 100 µM (inactive) | > 100 µM (inactive) | > 100 µM (inactive) | – | > 100 µM (inactive) | > 100 µM (inactive) | > 100 µM (inactive) | > 100 µM (inactive)
16 | C/C(=N/Nc1ccc([N+](=O)[O-])cc1[N+](=O)[O-])C(CC(C(=O)Nc1ccccc1C)/C(C)=N\Nc1ccc([N+](=O)[O-])cc1[N+](=O)[O-])C(=O)Nc1ccccc1C (stereo not drawn) | 6.87 µM (inactive) | 31 µM (inactive) | 14.3 µM (inactive) | 12.4 µM (inactive) | – | 16.4 µM (inactive) | 14.5 µM (inactive) | 14.4 µM (inactive) | 14.8 µM (inactive)
17 | N#CCC(=O)N1CCCCCCC1 | 31.3 µM (inactive) | > 100 µM (inactive) | 77.8 µM (inactive) | – | – | > 100 µM (inactive) | – | – | 35.7 µM (inactive)
18 | O=C(COC(=O)c1cccc2c(=O)c3ccccc3[nH]c12)Nc1ccc(Cl)cc1 | 58.6 µM (inactive) | > 100 µM (inactive) | 61.7 µM (inactive) | > 100 µM (inactive) | – | 25.7 µM (inactive) | 46.8 µM (inactive) | > 100 µM (inactive) | –
19 | O=C(NC12CC3CC(CC(F)(C3)C1)C2)c1ccccc1 | > 100 µM (inactive) | > 100 µM (inactive) | > 100 µM (inactive) | > 100 µM (inactive) | – | > 100 µM (inactive) | > 100 µM (inactive) | – | > 100 µM (inactive)
20 | CC1(C)OCC(CO)(Nc2nc(N3CC3)nc(N3CC3)n2)CO1 | 4.65 µM (inactive) | 18.6 µM (inactive) | 24.5 µM (inactive) | 13.9 µM (inactive) | – | 22.3 µM (inactive) | 14.3 µM (inactive) | 27 µM (inactive) | 3.04 µM (inactive)
21 | CCN(CC)Cc1cc(Nc2c3ccccc3nc3c2[nH]c2ccccc23)ccc1O | 1.64 µM (inactive) | 0.867 µM (active) | 1.39 µM (inactive) | 1.63 µM (inactive) | 1.8 µM (inactive) | 2 µM (inactive) | 1.76 µM (inactive) | 1.6 µM (inactive) | 0.565 µM (active)
22 | COc1ccc(C(=O)C/C(=N/NC(N)=S)C(=O)Nc2ccccc2)cc1 | > 100 µM (inactive) | > 100 µM (inactive) | 97.7 µM (inactive) | > 100 µM (inactive) | – | > 100 µM (inactive) | > 100 µM (inactive) | > 100 µM (inactive) | > 100 µM (inactive)
23 | COC(=O)C1=C(C)C(=O)[C@H]2C(C(=O)OC)CCCC[C@@H]12 (stereo partly drawn) | 20.9 µM (inactive) | > 100 µM (inactive) | > 100 µM (inactive) | > 100 µM (inactive) | – | > 100 µM (inactive) | 89.9 µM (inactive) | > 100 µM (inactive) | 90.2 µM (inactive)
